Test results: article PMC7587369, “Antitumor Activity of Ruthenium(II) Terpyridine Complexes towards Colon Cancer Cells In Vitro and In Vivo” (Molecules, 2020)

How the values were obtained:
[1] = system: SW480 cells; experiment: LDH release assay, SW480; format: cell-based, human; conditions: SW480, 300 μM, 24 h
Method: (§1) The cytotoxicity of used complexes was examined by an In Vitro Toxicology Assay Kit, Lactic Dehydrogenase based (Sigma-Aldrich, St. Lous, MO, USA). Cells were prepared and treated with complexes in the same manner as for the MTT assay. Additional wells were prepared as high control cells were treated with 1/10 volume of LDH Assay Lysis Solution for 45 min. Cells exposed to medium were used as low controls. After treatment, supernatant (50 μL) was transferred to new plate and incubated with an equivalent volume of Lactate Dehydrogenase Assay Mixture (which was prepared by mixing equal volumes of LDH Assay Substrate Solution, LDH Assay Dye Solution, and 1’ LDH Assay Cofactor Preparation. After incubating the plates in the dark for 30 min at room temperature, reaction was terminated by the addition of 10 μL of 1 N HCl to each well and data were acquired by spectrophotometry at 490 nm. The percentage of dead cells was calculated using the formula [44]:% of dead cells = (exp. value − low control)/(high control − low control) × 100.

[2] = system: CT26 (mouse colon carcinoma cell line); experiment: MTT assay cytotoxicity, CT26; format: cell-based
Method: (§2) Oxaliplatin was included for comparison as a reference substance, and was tested under the same conditions.
(§3) The cells were harvested from the culture flasks during the exponential growth phase, counted and 5 × 10^3 cells/well were seeded into 96-well culture plates. About 24 h later, after the cell adherence, each well was treated with 100 μL of tested complexes, which had been serially diluted two-fold in medium to concentrations ranging from 300 to 2.3 μM. All cells were incubated at 37 °C in an atmosphere containing 5% CO2 and at absolute humidity for 24 and 72 h. After incubation, the culture medium was removed from each well and MTT solution (5 mg/mL in phosphate buffered saline (PBS)) was added to each well and cells were incubated 4 h under culture conditions. The cell-free supernatants were suctioned off, and dimethyl sulfoxide (DMSO) (150 μL) and glycine buffer (20 μL) were added to dissolve the formazan crystals. The plates were shaken for 10 min. The optical density of each well was determined at 595 nm using a multiplate reader (Zenyth 3100, Anthos Labtec Instruments GmbH, Salzburg, Austria). Experiments were performed in triplicates and repeated in three independent series. The percentage of cell viability was determined by comparison with untreated controls according to formula: % of viable cells = (E − B)/(S − B) × 100, where B is for the background of the medium alone, S is for the total viability/spontaneous death of untreated target cells, and E is for the experimental well. The IC50 values were determined by plotting the percentage viability versus concentration on a logarithmic graph and reading off the concentration at which 50% of cells remained viable relative to the control.

[3] = Behaviour in aqueous solution by 1H NMR in D2O; format: physicochemical; conditions: ambient temperature, forms aqua species
Method: (§4) These new resonances, which grew at the expense of those of the parent compound, were attributed to the aqua species [Ru(Cl-tpy)(en)(OH2)]^2+ (1aq) and [Ru(Cl-tpy)(dach)(OH2)]^2+ (2aq), respectively (Scheme 1).
(§5) The compounds [Ru(Cl-tpy)(en)Cl][Cl] […] All other chemicals were used as purchased without further purification. NMR spectra were recorded on a Varian Gemini 200 MHz spectrometer. All chemical shifts were referenced to TSP (trimethylsilylpropionic acid) at d = 0.00. All NMR spectra were run at 295 K.

[4] = system: HCT116 cells; experiment: LDH release assay, HCT116; format: cell-based, human; conditions: HCT116, 300 μM, 24 h
Method: as §1

[5] = system: HeLa, A549 and MRC-5 cells; set-up: method as in PMID 26855406, PMID 28088012; conditions: previously conducted study; read-out: IC50, range over HeLa, A549 and MRC-5; cited from earlier work
[6] = system: SW480 (human colon carcinoma cell line); experiment: MTT assay cytotoxicity, SW480; format: cell-based
Method: as §2, §3

[7] = system: syngeneic CT26 mouse colon carcinoma; experiment: Heterotopic CT26 colon carcinoma growth in mice; format: in vivo, BALB/c mice; conditions: 2 mg/kg i.p.; for tumor weights after necropsy versus vehicle-treated mice: four times in total; for tumor growth inhibition (TGI): four times in total from day six, last day of the experiment; for necrosis fields in primary tumor, histology: hematoxylin and eosin
Method: In view of the proven cytotoxic effects of ruthenium(II) terpyridine complexes in vitro, the next goal of the present study was to examine the ability of tested compounds to inhibit murine colon cancer growth and progression in vivo. CT26 cells were heterotopically implanted into the shaved flank of the mice.
Male BALB/c mice of 6–8 weeks of age were used in all experiments. Mice were housed in a temperature-controlled environment (22–24 °C) with a 12 h light–dark cycle and were given standard laboratory food and water ad libitum. […] All experiments were approved (01-8461/2) by, and conducted in accord with, the Guidelines of the Animal Ethics Committee of the Faculty of Medical Sciences of the University of Kragujevac (Kragujevac, Serbia).
The size of primary CT26 colon tumors were assessed morphometrically using electronic calipers in two dimensions. The tumor volume was calculated as follows: tumor volume (mm^3) = (L × W^2)/2, where L is the longest and W the shortest […] of the tumor in millimeters. Results were expressed as means of tumor volumes ± SD. The percent tumor growth inhibition (TGI) was determined according to the formula, TGI(%) = (Vc − Vt)/(Vc − Vo) × 100, where Vc − Vt are the median of control and treated groups at the end of the study and Vo at the start.

[8] = system: HCT116 (human colon carcinoma cell line); experiment: MTT assay cytotoxicity, HCT116; format: cell-based
Method: as §2, §3

[9] = Systemic toxicity in CT26 tumor-bearing mice (body and organ weight, serum biochemistry, histopathology); conditions: 2 mg/kg i.p.
Method: Finally, in order to examine the safety of ruthenium(II) terpyridine complexes in vivo, the mice’s body weight was measured before tumor cell inoculation and at the end of experiment. The toxicity associated with ruthenium(II) terpyridine complexes treatment was assessed at biochemical and histopathological levels. The serum concentrations of the biochemical markers ALT, AST, urea, and creatinine were obtained to evaluate the liver and renal functions. In addition, the histopathological changes in the target organs, liver, heart, lungs, and kidneys were evaluated.
BALB/c mice bearing syngeneic CT26 mouse colon carcinoma were selected as the test system, as this experimental model has been extensively used for this kind of research in the literature [47]. For heterotopic colon carcinoma model, 1 × 10^6 CT26 cells suspended in 100 μL of DMEM were injected subcutaneously into the left flank of mice. Tumor-bearing mice were examined every 3 days for tumor development and progression and monitoring body weight. Animals were randomized into 4 groups with 6 tumor-bearing mice that were ear-tagged and followed-up individually throughout the study. The intraperitoneal administration of complexes or saline began on sixth day after post-tumor inoculation. Each drug was administered at doses of 2 mg/kg dissolved in 200 μL saline, twice weekly for four times in total (Scheme 2).
To study the potential side effects of ruthenium(II) terpyridine complexes, treated mice were monitored for weight loss. […] Blood samples were collected from abdominal aorta of each mouse in tubes without anticoagulant, and a separated serum was processed and analyzed by the chemistry analyzer Roche Cobas Mira Plus. The levels of serum urea, creatinine, and liver enzymes—aspartate aminotransferase (AST) and alanine aminotransferase (ALT)—were determined to assess the renal and hepatic function. After sacrificed, organ weights of the heart, liver, lungs, and kidneys, as well as the tumors, were determined for each animal, and the relative organ weight was calculated as % body weight. The tissue sections of various organs (heart, liver, lungs, and kidneys) and tumor were isolated for histopathological analysis. The tissues fixed in 4% paraformaldehyde were embedded in paraffin, cut into thin sections and mounted on glass slides. The tissue sections were stained with hematoxylin and eosin for microscopic examination.

[10] = system: HCT116 cells; experiment: Annexin V-FITC/PI double staining, flow cytometry, HCT116; format: cell-based, human; conditions: HCT116, IC50 concentrations, 24 h
Method: (§6) For the detection of apoptosis, the Annexin V binding capacity of treated cells was examined by flow cytometry using an Annexin V-fluorescein isothiocyanate (FITC) Detection Kit (BD Pharmingen, San Jose, CA, USA) according to the manufacturer’s protocol. […] Following the incubation, all cells were trypsinized, washed in PBS, centrifuged, and resuspended in 100 μL of ice-cold binding buffer (10× binding buffer: 0.1 M Hepes/NaOH (pH 7.4), 1.4 M NaCl, 25 mM CaCl2) at a concentration of 1 × 10^6/mL. Annexin V-FITC and propidium iodide (PI) were added to the 100 μL of cell suspension and incubated for 15 min at room temperature (25 °C) in the dark. After incubation, 400 μL of 1× binding buffer was added to each tube and stained cells were analyzed within 1 h using a flow cytometer FACS Calibur (BD Biosciences, San Jose, CA, USA). Data were analyzed using FlowJo Software version VX [45]. Measurements were presented as density plots of Annexin V-FITC and PI stainings.

[11] = Interaction with glutathione by 1H NMR in D2O; conditions: 10 mM in D2O, GSH added to equilibrated solution
Method: as §4
The addition of GSH to an equilibrated solution of Ru-1 (10 mM) in D2O induced very slow changes in the ^1H NMR spectrum (Figure 2). A new set of resonances, attributable to the thiolate adduct [Ru(Cl-tpy)(en)(GS-S)] (3), became apparent in the ^1H NMR spectrum after 6 h. […] (4).
as §5

[12] = system: CT26 cells; experiment: LDH release assay, CT26; format: cell-based, mouse; conditions: CT26, 300 μM, 24 h
Method: as §1

[13] = set-up: method as in PMID 26855406; conditions: cited from earlier work
[14] = system: HCT116 cells; experiment: Cell cycle analysis, HCT116; format: cell-based, human; conditions: HCT116, IC50 doses, 24 h
Method: (§7) Both the apoptosis induction and/or cell cycle arrest may reduce the viability of carcinoma cells. Thus, we next investigated the impact of ruthenium(II) terpyridine complexes on possible cell cycle disturbances in colon carcinoma cells.
(§8) Cell cycle analysis was performed with a Vybrant® DyeCycle™ Ruby stain (Thermo Fisher Scientific, Waltham, MA, USA) according to the manufacturer’s instructions. CT26, HCT116, and SW480 cells stained with Vybrant DyeCycle Ruby were analyzed by a Fluorescence-activated cell sorting (FACS) Calibur flow Cytometer (BD Biosciences, San Jose, CA, USA). The cell cycle distribution was analyzed using FlowJo software and the results were presented as histograms.

[15] = system: CT26 cells; experiment: Cell cycle analysis, CT26; format: cell-based, mouse; conditions: CT26, IC50 doses, 24 h
Method: as §7, §8

[16] = system: CT26 cells; experiment: Annexin V-FITC/PI double staining, flow cytometry, CT26; format: cell-based, mouse; conditions: CT26, IC50 concentrations, 24 h
Method: as §6

lability of the chloride ligand in aqueous solution [3]	Compound	LDH levels (LDH release, % of dead cells) [1] [%]	IC50 ([2]; 24 h exposure) [µM]	IC50 ([2]; 72 h exposure) [µM]	LDH levels (LDH release, % of dead cells) [4] [%]	IC50 [5] [µM]	IC50 ([6]; 24 h exposure) [µM]	IC50 ([6]; 72 h exposure) [µM]	tumor weights after necropsy versus vehicle-treated mice [7]	tumor growth inhibition (TGI) [7] [%]	necrosis fields in primary tumor, histology [7]	IC50 ([8]; 24 h exposure) [µM]	IC50 ([8]; 72 h exposure) [µM]	serum level of ALT ([9]; tumor-bearing mice)	serum level of AST compared to the control group ([9]; tumor-bearing mice)	late apoptosis in HCT116 cells, in words [10]	serum concentration of creatinine ([9]; tumor-bearing mice)	cell cycle disturbance [15]	other results
very labile	Clc1cc(-c2ccccn2)nc(-c2ccccn2)c1.NC1CCCCC1N.[Cl-].[Cl-].[Ru+2] [Ru-2, [Ru(Cl-tpy)(dach)Cl][Cl]]	33.07	167 ± 12	148 ± 11	2.35	72.8 to 111	156 ± 12	86.4 ± 7	slightly smaller than tumors from the control group, but without statistical significance	17.56	larger compared to necrosis fields in the tumors of untreated mice and oxaliplatin-treated mice	50.4 ± 5	20.4 ± 1	no difference	no difference	–	–	–	serum urea concentration, excess compared to all other groups ([9]; tumor-bearing mice): ~ 3 units
very labile	Clc1cc(-c2ccccn2)nc(-c2ccccn2)c1.NCCN.[Cl-].[Cl-].[Ru+2] [Ru-1, [Ru(Cl-tpy)(en)Cl][Cl]]	–	43.3 ± 3	50.9 ± 4	8.37	32.8 to 66.3	50.4 ± 4	44.7 ± 4	markedly lower	53.41	The largest part of the primary tumor of Ru-1-treated mice was necrotic	31.8 ± 2	19.1 ± 1	–	–	induced late apoptosis	did not affect	G2/M phase arrest	time after which thiolate adduct with GSH became apparent in 1H NMR [11]: 6 h; LDH levels (LDH release, % of dead cells) [12]: 36.43%; log Po/w [13]: −1.33; cell cycle disturbance [14]: G2/M phase arrest; histological changes in kidney tissue [9]: hyaline cylinders and focal hyaline glomerular change; serum concentration of urea compared to saline-treated mice ([9]; tumor-bearing mice): did not affect; histological changes in heart tissue ([9]; in comparison with oxaliplatin and saline-treated mice): No significant histological changes
–	O=C1[O][Pt]2([NH][C@@H]3CCCC[C@H]3[NH]2)[O]C1=O [Oxaliplatin, oxaliplatin, reference compound]	2.20	54.5 ± 4	25.2 ± 2	0	–	100 ± 9	1.3	markedly lower	51.39	no greater than the necrosis field in untreated mice tumors	9.7 ± 8	0.1	no difference	no difference	induced late apoptosis	did not affect	G2/M phase arrest	apoptotic death of CT26 tumor cells, in words [16]: moderately induced apoptotic death
